How the values were obtained:
Assay type in all cases: cell-based, human
[1] = tested on: promyelo/monocytic cell line U937; assay: MTT cell proliferation, U937; conditions: for growth inhibition by free active principle: stated in the U937/HL-60 context
Method: MCF7, U937, HL-60 and HT29 cell lines were purchased from the American […] Culture Collection (Rockville, […].). MCF7 cells were grown in DMEM/F12 supplemented with 5% FBS, while U937 and HL-60 were grown in RPMI-1640 supplemented with 10% (v/v) foetal bovine serum.
Approximately 1000 cells (MCF7 and HT29) and 500 cells (U937 and HL-60) per well were used in 96-well plates and were treated as indicated in the examples. At the end of the experiment, the anti-proliferative effect was measured with 3-(4,5-dimethylthiazol-2-yl)-2,5-diphenyltetrazolium bromide (MTT). The blank value, corresponding to wells containing all the components but cells, was subtracted from the absorbance values obtained.

[2] = tested on: promyelo/monocytic cell line U937; assay: Cell cycle perturbation by flow cytometry, U937; conditions: U937, 3 days; mixed ester 0.1 mg/ml, BA 0.2 mM, RA 10^−5 M
Method: The evaluation was performed by flow cytometry (panels a, b, c) after 6 days of continuous treatment with mixed ester at 0.1 or 1 mg/ml concentrations and was compared with the effect on cell growth determined by a colorimetric method (MTT), described by the curve -●-.
The effect on cell cycle and on cell proliferation has been assessed. The assessment has been performed by flow cytometry after 3 days of treatment with the mixed ester of the invention at 0.1 mg/ml concentration, or with butyric acid or retinoic acid at concentrations of 0.2 mM and 10^−5 M, respectively. Cell cycle perturbations induced by these compounds are related to the effect on cell proliferation (ordinate axis) exerted by identical concentrations of the drugs and expressed as percentage of the control (CTR) represented by cells cultured in medium alone. […] CTR: control. Panel a): (Go=45%; S=46%), panel b): (Go=44%; S=45%); panel c) (Go=43%; S=45%); panel d): (Go=72%; S=22%); panel e) (Go=41%; S=46%), panel f): (Go=94%; S=2%).
To evaluate cell cycle alterations, cells were re-suspended in a solution containing only propidium iodide, Rnase and Nonidet P40 and the fluorescence was measured using a FACScan flow cytometer.

U937 cells = assay: Expression of membrane antigens by flow cytometry (FACS), U937; conditions: U937, 3 days; mixed ester 0.1 mg/ml, butyric acid 0.2 mM, retinoic acid 10^−5M
Method: Expression of CD44, CD11a, CD11b, CD18 antigens was measured with specific murine monoclonal antibodies and secondary anti-mouse antibodies conjugated to FITC. After immunofluorescence, cells were incubated in a solution containing propidium iodide (PI) (5 mg/ml), Rnase (10 kU/ml), and Nonidet P40 (0.005%). The fluorescence relative to PI was measured using a FACScan flow cytometer (Becton Dickinson) equipped with an argon laser at 488 nm excitation wavelength and a 610 nm filter. The fluorescence signal was collected in linear and logaritmic modes. Data were evaluated using the LYSIS II software.
To check whether the block of cell growth was accompanied by activation of differentiation, the selected experimental model consists of the U937 promyelo/monocytic cell line, in which the effect of mixed esters on a series of myelocyte/macrophage specific differentiation markers (CD11a, CD11b and CD18) has been studied. The resulting effect has been directly compared with that of the two active principles. […] The results have been compared with those obtained with butyric and retinoic acids at the same concentrations as in the mixed ester (respectively 0.2 mM and […]). Since the time of treatment was reduced to 3 days in these experiments, the effects on growth and cell cycle were also measured.
In table 2 are indicated the percentages of expression measured by FACS of some membrane antigens in U937 cells treated with the esters of the invention and with the two non-esterified active principles. For each treatment the control has been repeated and is then indicated by the respective superscript.
The evaluation was performed by flow cytometry after that the promyelo/monocytic U937 cell line was treated for 3 days with mixed ester at 0.1 mg/ml concentration, butyric acid at 0.2 mM concentration or retinoic acid at 10^−5M concentration. Human lymphocytes were used as negative control for the expression of the antigen under examination.

SMILES	growth inhibition by free active principle ([1]; BA 2 mM) [%]	anti-proliferative effect and cell cycle block ([1]; U937, 3 days, BA 0.2 mM, RA 10^−5 M)	cells blocked in G0/1 (Go) phase [2] [%]	cells in S phase [2] [%]	CD11a expression (U937 cells) [%]	CD11b expression (U937 cells) [%]	CD18 expression (U937 cells) [%]	CD44 expression (U937 cells) [%]	growth inhibition by free active principle ([1]; RA 10^−4 M) [%]
CCCC(=O)O [butyric acid, Butyric Acid]	~100	totally ineffective	44	45	76	17	82	91	–
CC1=C(/C=C/C(C)=C/C=C/C(C)=C/C(=O)O)C(C)(C)CCC1 [retinoic acid, Retinoic acid]	–	–	94	2	91	28	83	97	~100

Source: patent publication US20060074048A1, “Mixed esters of hyaluronic acid with retinoic and butyric acids” (priority 2002, published 2006)
